In patent publication US4973597A, “Anticonvulsant agents” (Eli Lilly and Company, priority 1989, dated 1990):

Columns and labels:
[1] = tested on: tonic extensor seizures elicited by maximal electroshock; assay: electroshock induced convulsion inhibition assay (E.S.); type: in vivo, Cox standard strain albino male mice; conditions: mice; for ED50: Mus musculus, oral dose (gavage), 0.2 second, 50 milliampere corneal electroshock, inhibition of extensor tonic convulsions in half of the animals, at time of optimal response; for Time after dosing providing an approximately optimal response: oral gavage, time between dosing and administration of the electroshock
Method: In the electroshock induced convulsion inhibition assay (E.S.), the compound to be tested was suspended in acacia and administered by gavage to each of ten Cox standard strain albino male mice (18-24 g) at the dose level being investigated. Thirty to 180 minutes after compound administration, the mice were subjected to a 0.2 second, 50 milliampere electroshock through corneal electrodes. The animals were examined and evaluated immediately after the electroshock for the occurrence of clonic, flexor tonic, or extensor tonic convulsions, or death and the ED50 was determined for each compound as the dose which inhibited the occurrence of extensor tonic convulsions in one half of the animals immediately after the electroshock. For comparison, 18 milliamperes was usually sufficient to produce extensor tonic convulsions in about half of the control animals; at 50 milliamperes, almost all control animals (receiving vehicle only) died. The test results summarized in Table I are reported as the ED50 values calculated by computer interpolation of fixed doses at the time interval found to provide an optimal response after dosing. For comparison purposes, N-(2,6-dimethylphenyl)-3-pyridinecarboxamide, taught as an intermediate in Example 4 of U.S. Pat. No. 4,361,572, was also evaluated--this compound is referred to in Table I below as Compound A.

seizures = conditions: man; cited from earlier work

SMILES | ED50 [1] [mg/kg] | Time after dosing providing an approximately optimal response [1] [min] | plasma level that controls seizures (seizures) [µg/mL]
Cc1cccc(C)c1NC(=O)c1cccnc1 [Compound A, N-(2,6-dimethylphenyl)-3-pyridinecarboxamide, reference compound] | 24.5 | 30 | –
Cc1cccc(C)c1NC(=O)c1ccc(Cl)nc1 [Example 1, 6-Chloro-N-(2,6-dimethylphenyl)-3-pyridinecarboxamide] | 31.7 | 30 | –
Cc1ccc(C(=O)Nc2c(C)cccc2C)cn1 [Example 2, N-(2,6-Dimethylphenyl)-6-methyl-3-pyridinecarboxamide] | 6.7 | 60 | –
Cc1ccc(C(=O)Nc2c(C)cccc2Cl)cn1 [Example 3, N-(2-Chloro-6-methylphenyl)-6-methyl-3-pyridinecarboxamide] | 20.2 | 60 | –
CNc1ccc(C(=O)Nc2c(C)cccc2C)cn1 [Example 4, 6-(Methylamino)-N-(2,6-dimethylphenyl)-3-pyridinecarboxamide] | 8.7 | 60 | –
O=C1NC(=O)C(c2ccccc2)(c2ccccc2)N1 [phenytoin] | – | – | ≥ 10
